Data taken from patent publication US20120301895A1, “METHODS OF MODULATING BINDING OF SON OF SEVENLESS TO PHOSPHATIDIC ACID AND IDENTIFYING COMPOUNDS THAT MODULATE SUCH BINDING” (THE RESEARCH FOUNDATION OF STATE UNIVERSITY OF NEW YORK, priority 2007, published 2012).

System: PLD activity in MDA-MB-231 cells
Assay: In vivo PLD activity (transphosphatidylation, PBt) in MDA-MB-231 cells
Assay type: cell-based, human
Conditions: honokiol 20 μM, 4 hr
Method: In FIG. 13A, MDA-MB-231 cells were plated as in FIGS. 12A-C and then shifted to either 10% serum or 0.5% serum overnight as indicated. Honokiol (20 μM) or control ethanol was then added for 4 hr as indicated, at which time the cells were harvested and the levels of PBt were determined as in FIGS. 12A-C. The experiment shown is representative of at least three independent experiments. In FIG. 13B, the effect of honokiol on the activity of PLD isoforms was measured using exogenous substrate assay as described previously (Henage et al., “Kinetic Analysis of a Mammalian Phospholipase D: Allosteric Modulation by Monomeric GTPases, Protein Kinase C, and Polyphosphoinositides,” J. Biol. Chem. 281:3408-17 (2006), which is hereby incorporated by reference in its entirety). […] The amount of background was determined and subtracted using a bovine serum albumin standard. […]
For in vivo PLD activity, cells were plated in 60 mm culture dishes in DMEM with 10% serum at a density that would allow them to grow to about 80% confluence after 2 days, then cells were shifted to DMEM containing 0.5% or 10% serum as indicated in the figure legends overnight. […] Briefly, PLD activity was measured by the release of [methyl-^3H] choline from [choline-methyl-^3H]dipalmitoyl-phosphatidylcholine. […]

C=CCc1ccc(O)c(-c2ccc(O)c(CC=C)c2)c1 [honokiol, Honokiol]
PLD activity in cells in 0.5% serum (stress-induced) (0.5% serum): completely suppressed | basal PLD activity in cells maintained in 10% serum (10% serum): little effect
